According to the kinase profiling compilation of Christmann-Franck et al. (2016):

Experiments:
Experiment in all cases: SelectScreen, TR FRET
ABL1 (human) = ABL1 (human) (UniProt P00519)
ADRBK1 (human) = ADRBK1 (human) (UniProt P25098)
BRAF (human) = BRAF (human) (UniProt P15056)
CDC42BPA (human) = CDC42BPA (human) (UniProt Q5VT25)
CDK2 CCNA2 (human) = CDK2 CCNA2 (human) (UniProt P24941+P20248)
CDK5 CDK5R1 p25 (human) = CDK5 CDK5R1 p25 (human) (UniProt Q15078+Q00535)
CDK9 CCNT1 (human) = CDK9 CCNT1 (human) (UniProt O60563+P50750)
CSNK2A1 (human) = CSNK2A1 (human) (UniProt P68400)
CSNK2A1 (human), sequence (P68400 whole entry, looked up): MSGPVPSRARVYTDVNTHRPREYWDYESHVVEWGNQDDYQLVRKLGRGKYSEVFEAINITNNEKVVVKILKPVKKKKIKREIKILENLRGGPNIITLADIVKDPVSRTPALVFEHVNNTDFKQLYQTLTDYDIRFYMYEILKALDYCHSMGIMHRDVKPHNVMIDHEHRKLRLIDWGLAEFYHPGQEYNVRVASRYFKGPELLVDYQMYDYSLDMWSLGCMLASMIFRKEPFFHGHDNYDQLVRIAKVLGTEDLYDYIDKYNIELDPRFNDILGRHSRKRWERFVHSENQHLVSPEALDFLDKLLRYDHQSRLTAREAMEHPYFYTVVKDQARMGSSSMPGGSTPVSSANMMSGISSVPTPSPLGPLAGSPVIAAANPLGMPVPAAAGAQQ

DAPK1 (human) = DAPK1 (human) (UniProt P53355)
EGFR (human) = EGFR (human) (UniProt P00533)
EPHA3 (human) = EPHA3 (human) (UniProt P29320)
FGFR2 (human) = FGFR2 (human) (UniProt P21802)
FLT3 (human) = FLT3 (human) (UniProt P36888)
GRK4 (human) = GRK4 (human) (UniProt P32298)
GRK6 (human) = GRK6 (human) (UniProt P43250)
IKBKE (human) = IKBKE (human) (UniProt Q14164)
IKBKE (human), sequence (Q14164 whole entry, looked up): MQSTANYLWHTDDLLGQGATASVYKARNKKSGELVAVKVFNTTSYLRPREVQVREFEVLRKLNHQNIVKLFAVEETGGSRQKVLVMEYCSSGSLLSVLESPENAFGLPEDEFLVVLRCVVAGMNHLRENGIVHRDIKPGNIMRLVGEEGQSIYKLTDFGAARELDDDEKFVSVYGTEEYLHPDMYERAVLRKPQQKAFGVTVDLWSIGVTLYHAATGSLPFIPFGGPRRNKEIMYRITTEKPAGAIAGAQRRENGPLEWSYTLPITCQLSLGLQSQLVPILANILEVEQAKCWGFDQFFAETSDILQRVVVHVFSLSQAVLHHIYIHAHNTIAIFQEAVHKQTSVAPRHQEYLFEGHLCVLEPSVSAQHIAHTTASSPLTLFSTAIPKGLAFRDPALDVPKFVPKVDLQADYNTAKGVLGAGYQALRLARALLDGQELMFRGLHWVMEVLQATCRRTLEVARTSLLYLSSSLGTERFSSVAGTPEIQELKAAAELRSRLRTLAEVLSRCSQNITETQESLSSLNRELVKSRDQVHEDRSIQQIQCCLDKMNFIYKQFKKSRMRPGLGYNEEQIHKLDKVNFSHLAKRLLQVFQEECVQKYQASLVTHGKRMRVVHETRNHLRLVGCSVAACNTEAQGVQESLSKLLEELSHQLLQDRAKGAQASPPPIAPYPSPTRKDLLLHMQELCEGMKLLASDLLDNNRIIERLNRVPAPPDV

IRAK4 (human) = IRAK4 (human) (UniProt Q9NWZ3)
JAK2 JH1 JH2 (human) = JAK2 JH1 JH2 (human) (UniProt O60674)
KDR (human) = KDR (human) (UniProt P35968)
KDR (human), sequence (P35968 whole entry, looked up): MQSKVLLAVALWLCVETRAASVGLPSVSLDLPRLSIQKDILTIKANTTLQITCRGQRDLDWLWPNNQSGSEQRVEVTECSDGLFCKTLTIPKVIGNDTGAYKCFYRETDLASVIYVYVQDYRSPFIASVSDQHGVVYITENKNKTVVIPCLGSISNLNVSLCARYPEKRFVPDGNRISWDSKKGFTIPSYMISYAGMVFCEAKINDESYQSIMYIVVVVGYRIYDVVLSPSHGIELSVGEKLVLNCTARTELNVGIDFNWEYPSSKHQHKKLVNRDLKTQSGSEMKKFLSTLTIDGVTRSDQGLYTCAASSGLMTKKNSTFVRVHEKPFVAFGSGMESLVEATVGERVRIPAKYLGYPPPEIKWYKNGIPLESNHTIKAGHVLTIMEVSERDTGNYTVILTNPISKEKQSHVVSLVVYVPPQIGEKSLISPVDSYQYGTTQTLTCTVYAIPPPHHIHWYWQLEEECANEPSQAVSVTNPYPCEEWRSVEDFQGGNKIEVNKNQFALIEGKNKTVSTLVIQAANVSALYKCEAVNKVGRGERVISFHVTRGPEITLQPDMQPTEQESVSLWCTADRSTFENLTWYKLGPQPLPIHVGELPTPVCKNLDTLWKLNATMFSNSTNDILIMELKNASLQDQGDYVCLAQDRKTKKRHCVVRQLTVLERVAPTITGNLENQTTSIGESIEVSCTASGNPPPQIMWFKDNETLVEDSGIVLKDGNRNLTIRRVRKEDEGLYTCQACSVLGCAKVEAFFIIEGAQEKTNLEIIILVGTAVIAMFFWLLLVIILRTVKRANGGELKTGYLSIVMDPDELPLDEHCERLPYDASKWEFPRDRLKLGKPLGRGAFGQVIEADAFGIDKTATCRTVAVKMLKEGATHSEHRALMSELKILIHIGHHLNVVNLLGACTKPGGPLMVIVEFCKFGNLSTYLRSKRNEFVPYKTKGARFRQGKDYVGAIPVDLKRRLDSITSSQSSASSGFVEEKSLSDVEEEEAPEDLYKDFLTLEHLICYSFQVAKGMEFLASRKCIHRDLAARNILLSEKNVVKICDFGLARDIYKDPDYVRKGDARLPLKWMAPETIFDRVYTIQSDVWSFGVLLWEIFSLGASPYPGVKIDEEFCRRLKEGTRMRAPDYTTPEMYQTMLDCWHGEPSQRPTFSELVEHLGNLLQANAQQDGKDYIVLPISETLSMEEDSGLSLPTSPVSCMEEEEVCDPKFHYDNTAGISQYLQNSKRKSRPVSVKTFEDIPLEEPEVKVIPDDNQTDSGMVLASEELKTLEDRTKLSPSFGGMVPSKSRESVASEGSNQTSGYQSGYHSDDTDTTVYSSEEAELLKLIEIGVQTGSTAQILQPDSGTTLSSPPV

KIT (human) = KIT (human) (UniProt P10721)
MAP3K8 (human) = MAP3K8 (human) (UniProt P41279)
MAP3K8 (human), sequence (P41279 whole entry, looked up): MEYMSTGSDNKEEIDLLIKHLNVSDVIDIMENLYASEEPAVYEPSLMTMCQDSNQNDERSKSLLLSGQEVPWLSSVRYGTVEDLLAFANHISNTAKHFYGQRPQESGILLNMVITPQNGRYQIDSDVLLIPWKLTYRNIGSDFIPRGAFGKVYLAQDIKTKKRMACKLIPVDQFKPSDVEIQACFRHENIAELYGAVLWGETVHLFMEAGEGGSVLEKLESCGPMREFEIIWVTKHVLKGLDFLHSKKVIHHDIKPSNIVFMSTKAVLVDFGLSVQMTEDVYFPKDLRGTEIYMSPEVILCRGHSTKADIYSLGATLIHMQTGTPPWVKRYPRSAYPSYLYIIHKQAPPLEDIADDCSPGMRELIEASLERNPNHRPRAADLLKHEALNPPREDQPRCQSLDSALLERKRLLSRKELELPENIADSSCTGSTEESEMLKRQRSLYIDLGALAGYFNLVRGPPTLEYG

NEK2 (human) = NEK2 (human) (UniProt P51955)
PASK (human) = PASK (human) (UniProt Q96RG2)
PASK (human), sequence (Q96RG2 whole entry, looked up): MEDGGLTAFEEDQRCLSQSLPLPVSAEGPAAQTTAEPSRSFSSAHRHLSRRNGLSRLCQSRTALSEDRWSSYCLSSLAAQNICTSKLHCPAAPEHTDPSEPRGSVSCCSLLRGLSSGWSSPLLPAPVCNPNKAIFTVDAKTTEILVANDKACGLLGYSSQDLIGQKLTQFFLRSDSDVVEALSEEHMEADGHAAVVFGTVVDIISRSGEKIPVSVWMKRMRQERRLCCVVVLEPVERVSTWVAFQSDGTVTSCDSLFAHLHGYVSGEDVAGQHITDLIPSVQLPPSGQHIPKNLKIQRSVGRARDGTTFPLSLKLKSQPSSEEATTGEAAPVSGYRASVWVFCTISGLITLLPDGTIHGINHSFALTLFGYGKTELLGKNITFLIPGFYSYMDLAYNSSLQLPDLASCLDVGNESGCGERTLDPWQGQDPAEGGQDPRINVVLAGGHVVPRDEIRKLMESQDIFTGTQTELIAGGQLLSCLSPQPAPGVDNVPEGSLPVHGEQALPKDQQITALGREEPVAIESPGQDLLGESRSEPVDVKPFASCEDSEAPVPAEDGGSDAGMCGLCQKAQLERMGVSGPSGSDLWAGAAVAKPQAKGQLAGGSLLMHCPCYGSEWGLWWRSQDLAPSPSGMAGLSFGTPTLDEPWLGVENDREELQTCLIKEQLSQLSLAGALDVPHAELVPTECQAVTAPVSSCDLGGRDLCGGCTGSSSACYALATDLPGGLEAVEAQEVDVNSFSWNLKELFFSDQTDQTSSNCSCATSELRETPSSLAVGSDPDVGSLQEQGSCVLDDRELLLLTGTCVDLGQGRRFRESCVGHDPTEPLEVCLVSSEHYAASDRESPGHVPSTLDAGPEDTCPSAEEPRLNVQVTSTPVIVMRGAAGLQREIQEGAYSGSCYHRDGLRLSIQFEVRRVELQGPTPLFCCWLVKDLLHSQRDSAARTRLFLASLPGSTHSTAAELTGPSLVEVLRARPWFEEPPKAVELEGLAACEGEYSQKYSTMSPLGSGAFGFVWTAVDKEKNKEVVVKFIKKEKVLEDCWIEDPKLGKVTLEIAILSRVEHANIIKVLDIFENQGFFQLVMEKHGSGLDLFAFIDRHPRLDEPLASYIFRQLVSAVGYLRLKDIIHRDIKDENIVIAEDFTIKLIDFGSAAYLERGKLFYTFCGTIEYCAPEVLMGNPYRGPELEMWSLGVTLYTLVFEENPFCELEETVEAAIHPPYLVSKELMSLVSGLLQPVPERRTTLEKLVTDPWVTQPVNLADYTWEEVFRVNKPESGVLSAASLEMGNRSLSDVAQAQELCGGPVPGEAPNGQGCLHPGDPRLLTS

PKN1 (human) = PKN1 (human) (UniProt Q16512)
PRKCQ (human) = PRKCQ (human) (UniProt Q04759)
ROCK1 (human) = ROCK1 (human) (UniProt Q13464)
TEK (human) = TEK (human) (UniProt Q02763)
ZAP70 (human) = ZAP70 (human) (UniProt P43403)

BRAF (human), sequence (P15056 whole entry, looked up): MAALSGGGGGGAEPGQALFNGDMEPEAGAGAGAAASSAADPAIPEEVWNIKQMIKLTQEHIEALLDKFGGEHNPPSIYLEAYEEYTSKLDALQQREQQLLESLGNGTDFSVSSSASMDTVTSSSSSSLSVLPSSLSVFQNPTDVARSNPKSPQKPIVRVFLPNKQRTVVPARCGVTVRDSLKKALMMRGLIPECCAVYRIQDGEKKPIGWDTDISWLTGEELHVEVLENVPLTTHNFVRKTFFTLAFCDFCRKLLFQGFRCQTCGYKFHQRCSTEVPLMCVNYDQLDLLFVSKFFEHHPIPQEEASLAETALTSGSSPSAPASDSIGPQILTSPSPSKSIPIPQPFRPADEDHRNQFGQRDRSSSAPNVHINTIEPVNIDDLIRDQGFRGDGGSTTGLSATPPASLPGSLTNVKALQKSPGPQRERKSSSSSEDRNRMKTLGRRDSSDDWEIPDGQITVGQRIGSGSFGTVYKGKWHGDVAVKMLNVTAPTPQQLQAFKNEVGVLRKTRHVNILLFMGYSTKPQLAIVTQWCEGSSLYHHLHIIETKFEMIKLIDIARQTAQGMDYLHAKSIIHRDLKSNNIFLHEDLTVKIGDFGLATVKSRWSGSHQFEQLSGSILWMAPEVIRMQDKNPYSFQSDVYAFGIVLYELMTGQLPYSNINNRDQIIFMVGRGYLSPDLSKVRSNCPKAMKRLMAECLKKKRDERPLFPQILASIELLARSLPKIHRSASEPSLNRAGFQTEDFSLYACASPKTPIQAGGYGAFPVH

inhibition (ABL1 (human); compound 0.1 µM): 19.9%
inhibition (ABL1 (human); compound 1.0 µM): 14.1%
inhibition (ABL1 (human); compound 10.0 µM): 81.7%
inhibition (ADRBK1 (human); compound 0.1 µM): 9.4%
inhibition (ADRBK1 (human); compound 1.0 µM): 8.9%
inhibition (ADRBK1 (human); compound 10.0 µM): 10.4%
inhibition (BRAF (human); compound 0.1 µM): 12.3%
inhibition (BRAF (human); compound 1.0 µM): 13.5%
inhibition (BRAF (human); compound 10.0 µM): -0.3%
inhibition (CDC42BPA (human); compound 0.1 µM): 6.3%
inhibition (CDC42BPA (human); compound 1.0 µM): 8.7%
inhibition (CDC42BPA (human); compound 10.0 µM): 8.6%
inhibition (CDK2 CCNA2 (human); compound 0.1 µM): 17%
inhibition (CDK2 CCNA2 (human); compound 1.0 µM): 18.6%
inhibition (CDK2 CCNA2 (human); compound 10.0 µM): 18.3%
inhibition (CDK5 CDK5R1 p25 (human); compound 0.1 µM): 6.6%
inhibition (CDK5 CDK5R1 p25 (human); compound 1.0 µM): 6.7%
inhibition (CDK5 CDK5R1 p25 (human); compound 10.0 µM): 14.5%
inhibition (CDK9 CCNT1 (human); compound 0.1 µM): 9.4%
inhibition (CDK9 CCNT1 (human); compound 1.0 µM): 4.4%
inhibition (CDK9 CCNT1 (human); compound 10.0 µM): 10.8%
inhibition (CSNK2A1 (human); compound 0.1 µM): 8.2%
inhibition (CSNK2A1 (human); compound 1.0 µM): 9.2%
inhibition (CSNK2A1 (human); compound 10.0 µM): 10.2%
inhibition (DAPK1 (human); compound 0.1 µM): 21.9%
inhibition (DAPK1 (human); compound 1.0 µM): 2.1%
inhibition (DAPK1 (human); compound 10.0 µM): 14.5%
inhibition (EGFR (human); compound 0.1 µM): 0.5%
inhibition (EGFR (human); compound 1.0 µM): 0.6%
inhibition (EGFR (human); compound 10.0 µM): 7.1%
inhibition (EPHA3 (human); compound 0.1 µM): -1.7%
inhibition (EPHA3 (human); compound 1.0 µM): 5.2%
inhibition (EPHA3 (human); compound 10.0 µM): 16.4%
inhibition (FGFR2 (human); compound 0.1 µM): 14.2%
inhibition (FGFR2 (human); compound 1.0 µM): 33.5%
inhibition (FGFR2 (human); compound 10.0 µM): 74%
inhibition (FLT3 (human); compound 0.1 µM): 24.6%
inhibition (FLT3 (human); compound 1.0 µM): 59.7%
inhibition (FLT3 (human); compound 10.0 µM): 80%
inhibition (GRK4 (human); compound 0.1 µM): 12.9%
inhibition (GRK4 (human); compound 1.0 µM): 11.9%
inhibition (GRK4 (human); compound 10.0 µM): 37.1%
inhibition (GRK6 (human); compound 0.1 µM): 5.6%
inhibition (GRK6 (human); compound 1.0 µM): 7%
inhibition (GRK6 (human); compound 10.0 µM): 13.4%
inhibition (IKBKE (human); compound 0.1 µM): 7.5%
inhibition (IKBKE (human); compound 1.0 µM): 7%
inhibition (IKBKE (human); compound 10.0 µM): 8.6%
inhibition (IRAK4 (human); compound 0.1 µM): 19.8%
inhibition (IRAK4 (human); compound 1.0 µM): 25.5%
inhibition (IRAK4 (human); compound 10.0 µM): 59%
inhibition (JAK2 JH1 JH2 (human); compound 0.1 µM): 4.4%
inhibition (JAK2 JH1 JH2 (human); compound 1.0 µM): 12.5%
inhibition (JAK2 JH1 JH2 (human); compound 10.0 µM): 41%
inhibition (KDR (human); compound 0.1 µM): 20%
inhibition (KDR (human); compound 1.0 µM): 54.7%
inhibition (KDR (human); compound 10.0 µM): 93.9%
inhibition (KIT (human); compound 0.1 µM): 9.7%
inhibition (KIT (human); compound 1.0 µM): 13.2%
inhibition (KIT (human); compound 10.0 µM): 48.1%
inhibition (MAP3K8 (human); compound 0.1 µM): 28%
inhibition (MAP3K8 (human); compound 1.0 µM): 23.4%
inhibition (MAP3K8 (human); compound 10.0 µM): 12.9%
inhibition (NEK2 (human); compound 0.1 µM): 15.7%
inhibition (NEK2 (human); compound 1.0 µM): 9.8%
inhibition (NEK2 (human); compound 10.0 µM): -56.3%
inhibition (PASK (human); compound 0.1 µM): 7.5%
inhibition (PASK (human); compound 1.0 µM): 5.9%
inhibition (PASK (human); compound 10.0 µM): 11.1%
inhibition (PKN1 (human); compound 0.1 µM): 12.2%
inhibition (PKN1 (human); compound 1.0 µM): 13.6%
inhibition (PKN1 (human); compound 10.0 µM): -14.2%
inhibition (PRKCQ (human); compound 0.1 µM): 7.2%
inhibition (PRKCQ (human); compound 1.0 µM): 7.1%
inhibition (PRKCQ (human); compound 10.0 µM): 7.7%
inhibition (ROCK1 (human); compound 0.1 µM): 0%
inhibition (ROCK1 (human); compound 1.0 µM): 2.5%
inhibition (ROCK1 (human); compound 10.0 µM): 10.9%
inhibition (TEK (human); compound 0.1 µM): -0.9%
inhibition (TEK (human); compound 1.0 µM): 4.6%
inhibition (TEK (human); compound 10.0 µM): 45.3%
inhibition (ZAP70 (human); compound 0.1 µM): 18.4%
inhibition (ZAP70 (human); compound 1.0 µM): 17.4%
inhibition (ZAP70 (human); compound 10.0 µM): 15.2%
Structure (SMILES): Cn1cc(-c2cnc3ccc4ccc(CC(=O)NCc5ccccn5)cc4c(=O)c3c2)cn1
